PubChem BioAssay (NCI)
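1) Cells in 96-well plates. 2) Compound, 48 h, 5 concentrations. 3) Linear interpolation between surrounding doses. 4) Unreached endpoint = highest concentration. At the GI50, growth is halved. The concentration for full growth arrest is given as TGI.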

How the values were obtained:
Assay in all cases: NCI-60 cell line screen, 48 h
TK-10 renal = tested on: TK-10 renal
OVCAR-4 ovarian = tested on: OVCAR-4 ovarian
HL-60(TB) leukemia = tested on: HL-60(TB) leukemia
HOP-92 NSCLC = tested on: HOP-92 NSCLC
SNB-19 CNS = tested on: SNB-19 CNS
OVCAR-5 ovarian = tested on: OVCAR-5 ovarian
COLO 205 colon = tested on: COLO 205 colon
UACC-257 melanoma = tested on: UACC-257 melanoma
M14 melanoma = tested on: M14 melanoma
NCI-H23 lung = tested on: NCI-H23 lung

SMILES | GI50 (TK-10 renal) [µM] | TGI (TK-10 renal) [µM] | GI50 (OVCAR-4 ovarian) [µM] | TGI (OVCAR-4 ovarian) [µM] | GI50 (HL-60(TB) leukemia) [µM] | TGI (HL-60(TB) leukemia) [µM] | GI50 (HOP-92 NSCLC) [µM] | TGI (HOP-92 NSCLC) [µM] | GI50 (SNB-19 CNS) [µM] | TGI (SNB-19 CNS) [µM] | GI50 (OVCAR-5 ovarian) [µM] | TGI (OVCAR-5 ovarian) [µM] | GI50 (COLO 205 colon) [µM] | TGI (COLO 205 colon) [µM] | GI50 (UACC-257 melanoma) [µM] | TGI (UACC-257 melanoma) [µM] | GI50 (M14 melanoma) [µM] | TGI (M14 melanoma) [µM] | GI50 (NCI-H23 lung) [µM] | TGI (NCI-H23 lung) [µM]
C#CCOc1cccc(Nc2ncnc3c(NC(=O)C=C)cccc23)c1 | 19.2 | 69.2 | 37.8 | > 100 | 18.9 | > 100 | 13.6 | 42.6 | 39.5 | > 100 | 27.6 | > 100 | 24.6 | 73.4 | 31.4 | > 100 | 19.4 | 67.8 | 24.8 | > 100
COC(=O)C(=O)C(C(C)=O)C(=O)NCc1ccc(OC)c(OC)c1 (stereo not given) | – | > 100 | – | > 100 | – | > 100 | – | > 100 | – | > 100 | – | > 100 | – | > 100 | – | > 100 | – | > 100 | – | > 100
CCc1ccc2c(c1)C(=O)c1c-2n(CCCN=[N+]=[N-])c(=O)c2cc([N+](=O)[O-])ccc12 | > 50 | > 50 | 49.6 | > 50 | > 50 | > 50 | > 50 | > 50 | > 50 | > 50 | > 50 | > 50 | > 50 | > 50 | > 50 | > 50 | > 50 | > 50 | > 50 | > 50
O=c1[nH]cnc(NC2C=C(CO)C(O)C2O)c1[N+](=O)[O-] (stereo not given) | – | > 100 | – | > 100 | – | > 51.7 | – | > 100 | – | > 100 | – | > 100 | – | > 100 | – | > 100 | – | > 100 | – | > 100
CCN(CC)CCCCCCNc1cccc2cc(Br)cnc12 | 1.81 | 3.89 | 5.05 | 18.9 | 2 | 4.65 | 2.52 | 9.44 | 5.77 | 22.6 | 6.25 | 18.9 | 1.87 | 3.88 | 3.28 | 9.36 | 2.05 | 3.93 | 5.89 | 20.7
N#CCCN1C/C(=C/c2ccc(Br)cc2)C(=O)/C(=C/c2ccc(Br)cc2)C1 | 2.45 | 5.44 | 2.69 | > 100 | 2.55 | > 100 | 1.71 | 4.89 | 1.59 | 3.76 | 1.92 | 3.97 | 1.57 | 2.97 | 2.09 | 5.32 | 1.99 | 4.15 | 2.64 | 7.58
Cn1c(=O)nc2n(-c3cc(C(F)(F)F)cc(C(F)(F)F)c3)c3ccccc3nc-2c1=O | – | > 100 | – | > 100 | – | > 100 | – | > 100 | – | > 100 | – | > 100 | – | > 100 | – | > 100 | – | > 100 | – | > 100
Nc1c(-c2ccccc2-c2c(N)[n+]([O-])c3ccccc3[n+]2[O-])[n+]([O-])c2ccccc2[n+]1[O-] | – | > 100 | – | > 100 | – | > 31.3 | – | > 100 | – | > 100 | – | > 100 | – | 23.6 | – | 35.2 | – | 30.1 | – | > 100
COc1ccc(-c2oc(/C=N/NC(N)=S)c([N+](=O)[O-])c2-c2ccc(OC)c(OC)c2)cc1OC | – | > 100 | – | 61.6 | – | 55 | – | 79 | – | 97 | – | > 100 | – | > 100 | – | > 100 | – | 67.9 | – | > 100
CCCc1cc(=O)n2c(C(=O)Nc3ccc(Cl)cc3C)c(C(=O)Nc3ccc(F)cc3)sc2n1 | 12.3 | 39.3 | 2.57 | 6.25 | 1.33 | 23.8 | 0.166 | 0.989 | 23.8 | 74.2 | 53.9 | > 150 | 16.9 | > 150 | 7.56 | 42.4 | 4.67 | 23.7 | 26.4 | > 150
Cc1cccc(C2=C/C(=C(\SS/C(C(=O)c3ccc(OCC(=O)O)c(Cl)c3Cl)=C3\C=C(c4cccc(C)c4)SS3)C(=O)c3ccc(OCC(=O)O)c(Cl)c3Cl)SS2)c1 | – | > 88.2 | – | > 70.2 | – | 4.71 | – | 23.1 | – | 43.7 | – | > 86.2 | – | 38.3 | – | > 77.3 | – | 51.3 | – | 38.7
Nc1cc(Br)c(-c2nnc(CCC(=O)c3nc4ccccc4[nH]3)o2)c(Br)c1 | 36.5 | > 100 | 5.49 | 78.3 | 3.44 | > 100 | 0.499 | 19.9 | 20.1 | > 100 | 29.4 | > 100 | 11.8 | 30.8 | 7.63 | > 100 | 17.5 | 55.5 | 3.26 | 36.4
CCOP(=O)(OCC)C(C(=O)OC)C(=O)C(=O)Nc1ccc(Cl)cc1Cl (stereo not given) | – | > 100 | – | > 100 | – | > 100 | – | > 100 | – | > 100 | – | > 100 | – | > 100 | – | > 100 | – | > 100 | – | > 100
O=C1Nc2ccccc2/C1=C1\CCc2cc(O)ccc21 | 10.7 | > 25 | 7.02 | > 25 | 6.65 | > 21.5 | 5.93 | 22.8 | 13.2 | > 25 | 16.1 | > 25 | 12.4 | > 25 | 9.47 | > 25 | 7.18 | > 25 | 7.07 | > 25
